According to patent US20240058350A1, “Methods of Treatment” (Arena Pharmaceuticals, Inc., priority 2020, published 2024):

Legend:
[1] = test system: serotonin-mediated amplification of platelet aggregation; test: serotonin-mediated amplification of platelet aggregation; assay type: cell-based
Description: (§1) M1 refers to N-(4-(2-(2-hydroxyethylamino)ethoxy)-3-(1-methyl-1H-pyrazol-5-yl)phenyl)-3-methoxybenzamide. M2 refers to N-(4-(2-aminoethoxy)-3-(1-methyl-1H-pyrazol-5-yl)phenyl)-3-methoxybenzamide. Compound 1, or a pharmaceutically acceptable salt, hydrate, or solvate thereof, inhibits serotonin-mediated vasoconstriction and inhibits serotonin-mediated amplification of platelet aggregation.

[2] = test system: 5-HT-mediated amplification of platelet aggregation; test: Clinical Trial 1: PD, platelet aggregation with ADP with and without 5-HT; assay type: in vivo, human; conditions: single oral doses above 1 mg, healthy subjects
Description: (§2) A phase 1, randomized, double-blind, placebo-controlled, single-dose escalation study was conducted to assess the tolerability, PK, and PD of the HCl salt of Compound 1 at doses of 1 to 320 mg (adjusted free-base concentration) administered orally as a single dose to a total of 91 healthy subjects.
(§3) PD assessment consisted of measuring pre- and post-dose platelet aggregation using an in vitro assay with ADP with and without 5-HT. The degree of thrombin receptor activating peptide (TRAP)-induced platelet aggregation inhibition between groups was similar. However, Compound 1 inhibited 5-HT-mediated amplification of platelet aggregation at doses above 1 mg.

[3] = test system: thrombin receptor activating peptide (TRAP)-induced platelet aggregation; test: Clinical Trial 1: PD, TRAP-induced platelet aggregation; assay type: in vivo, human; conditions: single oral dose versus placebo, healthy subjects
Description: as §2, §3

[4] = Clinical Trial 2: phase 1 multiple ascending oral dose TID for 7 days, PK; assay type: in vivo, human; conditions: for accumulation ratio as measured by AUCtau: 60 and 80 mg Compound 1 oral TID, after 7 days; for metabolite exposures with increasing Compound 1 doses / metabolite to parent ratios with increasing Compound 1 doses: oral TID for 7 days
Description: A phase 1, randomized, double-blind, placebo-controlled, multiple-ascending dose-escalation study was conducted to assess the safety, tolerability, PD, and steady state PK of the HCl salt of Compound 1 from 5 to 80 mg (adjusted free-base concentration) administered orally TID for 7 days in a total of 50 healthy subjects.

[5] = Clinical Trial 1: phase 1 single oral dose escalation, PK; assay type: in vivo, human; conditions: healthy subjects; for half-life compared with the parent compound: single oral dose of Compound 1 HCl
Description: as §2

[6] = Clinical Trial 3: phase 1 single ascending IV dose, PK; assay type: in vivo, human
Description: (§4) A phase 1, randomized, blinded, sponsor-open, placebo-controlled, single ascending dose (SAD) study was conducted to assess the safety, tolerability, PK, and PD of single IV doses of Compound 1 and two active metabolites (M1 and M2) in healthy adult subjects. Five dose cohorts (each cohort composed of six Compound 1 subjects and two placebo subjects) were evaluated.
(§5) Subjects received a single dose of Compound 1 or placebo. Each cohort included a sentinel group of two subjects (one active and one placebo) dosed at least 24 hours before the remaining six subjects (five active and one placebo). The remaining subjects were dosed following review of all available safety and tolerability data from the sentinel subjects. Safety, tolerability, and PK data were reviewed after the completion of each dose cohort and prior to escalation to the next dose cohort. PD data were reviewed prior to dosing subsequent cohorts. Selection of dose for subsequent cohorts was based on the data from previous cohort(s). Following administration of Compound 1 or placebo, subjects were confined for 72 hours to monitor safety and to collect PK/PD samples. Cardiodynamic electrocardiogram (ECG) sampling were collected pre-dose and through 24 hours post-dose in each cohort. The clinic contacted subjects on Day 11 (1 day) to determine if any adverse event (AE) occurred since discharge.
(§6) IV doses of placebo […], 1 mg Compound 1 (n=6), 5 mg Compound 1 (n=6), 10 mg Compound 1 (n=5), 20 mg Compound 1 (n=6), 30 mg Compound 1 (n=6), or 40 mg Compound 1 (n=6) were administered. The doses of 1 mg, 5 mg, 10 mg, and 20 mg of Compound 1 were administered by slow bolus infusion over a period of two minutes, while the doses of 30 mg and 40 mg of Compound 1 were administered over a period of five minutes. The PD effects of the single doses were examined immediately after dosing and 4 hours after dosing.

[7] = Clinical Trial 3: safety and tolerability of single IV doses; assay type: in vivo, human
Description: as §4, §5, §6

5-HT2B receptors = 5-HT2B receptors (Homo sapiens, UniProt P41595); test: affinity for 5-HT2B receptors; assay type: binding
Sequence of 5-HT2B receptors (P41595 whole entry): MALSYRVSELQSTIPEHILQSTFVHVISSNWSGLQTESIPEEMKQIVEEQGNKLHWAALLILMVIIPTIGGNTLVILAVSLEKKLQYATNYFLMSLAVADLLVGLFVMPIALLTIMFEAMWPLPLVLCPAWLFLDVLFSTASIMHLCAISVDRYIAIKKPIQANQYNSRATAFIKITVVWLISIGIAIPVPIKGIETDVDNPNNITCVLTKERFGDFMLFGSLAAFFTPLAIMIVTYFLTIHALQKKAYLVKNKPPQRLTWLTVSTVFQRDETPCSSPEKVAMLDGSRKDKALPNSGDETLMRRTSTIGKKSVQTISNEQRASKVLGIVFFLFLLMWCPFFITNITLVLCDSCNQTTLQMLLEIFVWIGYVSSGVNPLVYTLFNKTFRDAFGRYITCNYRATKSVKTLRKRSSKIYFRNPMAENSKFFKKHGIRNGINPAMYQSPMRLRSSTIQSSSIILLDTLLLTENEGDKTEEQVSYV
Description: as §1

[8] = test system: serotonin-mediated vasoconstriction; test: serotonin-mediated vasoconstriction
Description: as §1

human 5-HT2A = human 5-HT2A (Homo sapiens, UniProt P28223); test: affinity for human 5-HT2A; assay type: binding
Sequence of human 5-HT2A (P28223 whole entry): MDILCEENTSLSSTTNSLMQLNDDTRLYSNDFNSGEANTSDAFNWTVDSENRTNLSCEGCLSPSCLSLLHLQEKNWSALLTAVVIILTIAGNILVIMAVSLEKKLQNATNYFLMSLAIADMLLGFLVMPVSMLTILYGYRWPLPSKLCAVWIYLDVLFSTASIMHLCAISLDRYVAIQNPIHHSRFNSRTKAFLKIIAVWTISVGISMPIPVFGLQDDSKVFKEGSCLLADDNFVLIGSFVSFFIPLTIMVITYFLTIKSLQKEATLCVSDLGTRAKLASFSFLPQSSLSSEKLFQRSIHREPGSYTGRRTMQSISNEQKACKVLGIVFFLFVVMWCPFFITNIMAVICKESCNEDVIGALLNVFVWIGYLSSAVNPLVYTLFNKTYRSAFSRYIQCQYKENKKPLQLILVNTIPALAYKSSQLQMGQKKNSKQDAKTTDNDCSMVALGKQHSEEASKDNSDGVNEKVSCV
Description: as §1

[9] = test system: 5-HT-mediated amplification of platelet aggregation; test: Clinical Trial 3: PD, 5-HT-mediated amplification of platelet aggregation; assay type: in vivo, human; conditions: single IV doses of 20 mg and greater
Description: as §4
as §5, with “discharge. […]” for “discharge.”

5-HT2C receptors = target: T1, 5-HT2C receptors (Homo sapiens, UniProt P28335); test: affinity for 5-HT2C receptors; assay type: binding
T1 sequence (P28335 33-458): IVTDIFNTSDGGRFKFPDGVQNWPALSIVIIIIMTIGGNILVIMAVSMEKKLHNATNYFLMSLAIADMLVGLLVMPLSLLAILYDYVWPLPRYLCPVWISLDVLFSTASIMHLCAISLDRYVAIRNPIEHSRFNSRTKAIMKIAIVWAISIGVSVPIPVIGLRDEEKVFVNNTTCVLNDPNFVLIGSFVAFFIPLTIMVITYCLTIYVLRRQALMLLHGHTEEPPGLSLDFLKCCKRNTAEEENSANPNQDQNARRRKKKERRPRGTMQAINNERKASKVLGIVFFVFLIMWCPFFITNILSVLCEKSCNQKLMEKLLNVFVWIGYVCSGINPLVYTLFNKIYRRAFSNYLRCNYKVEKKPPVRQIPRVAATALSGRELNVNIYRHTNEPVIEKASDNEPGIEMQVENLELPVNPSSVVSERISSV
Description: as §1

[10] = all doses, Day 1 versus Day 7, oral TID for 7 days

| affinity for 5-HT2B receptors (5-HT2B receptors) | affinity for human 5-HT2A (human 5-HT2A) | affinity for 5-HT2C receptors (5-HT2C receptors) | accumulation ratio as measured by AUCtau [4] | metabolite exposures with increasing Compound 1 doses [4] | metabolite to parent ratios with increasing Compound 1 doses [4] | metabolite-to-parent ratios as the dose was escalated ([5]; single oral dose 1 to 320 mg) | Compound | half-life compared with the parent compound [5] | further results |
| --- | --- | --- | --- | --- | --- | --- | --- | --- | --- |
| no appreciable affinity | high affinity | no appreciable affinity |  |  |  |  | COc1cccc(C(=O)Nc2ccc(OCCN3CCOCC3)c(-c3ccnn3C)c2)c1 [Compound 1, 3-methoxy-N-[3-(2-methylpyrazol-3-yl)-4-(2-morpholin-4-ylethoxy)phenyl]benzamide] |  | serotonin-mediated amplification of platelet aggregation [1]: inhibits; 5-HT-mediated amplification of platelet aggregation [2]: inhibited; degree of TRAP-induced platelet aggregation inhibition between groups [3]: similar; AUC accumulation ratio [4, 10]: less than 2; Cmax accumulation ratio [4, 10]: less than 2; absorption ([4]; oral 5 to 80 mg TID for 7 days, healthy subjects): rapidly absorbed at all doses; exposure as measured by AUC versus dose ([4]; oral TID, 5 and 10 mg): dose proportional; exposure as measured by AUC versus dose ([4]; oral TID, 40, 60, and 80 mg, Day 1 and Day 7): greater than dose proportional; absorption ([5]; single oral dose 1 to 320 mg): rapidly absorbed at all doses; half-life as the dose was escalated ([5]; single oral dose 1 to 320 mg): half-life increased; plasma exposure measures versus dose ([5]; single oral dose 1 to 320 mg): increased in a greater than dose proportional manner; Cmax ([6]; human, plasma, 40 mg single IV dose, healthy adult subjects, read-out: mean observed Cmax): 1840 ng/mL; half-life ([6]; human, plasma, single IV doses 1 to 40 mg, healthy adult subjects, read-out: mean terminal elimination half-life): 1 to 2 h; dose dependence of mean terminal elimination half-life ([6]; single IV doses 1 to 40 mg): dose-dependent; epistaxis, subjects affected ([7]; Compound 1 group, single IV dose): one subject; bleeding-related TEAEs, Bleeding Academic Research Consortium (BARC) Type ([7]; single IV doses): ≤ 1; discontinuation of treatment ([7]; single IV doses 1 to 40 mg): No subjects discontinued treatment; serotonin-mediated vasoconstriction [8]: inhibits; inhibition of 5-HT-mediated amplification of platelet aggregation [9]: Near-maximal inhibition |
| no appreciable affinity | high affinity | no appreciable affinity | approximately 2 | increased | decreased | decreased | COc1cccc(C(=O)Nc2ccc(OCCNCCO)c(-c3ccnn3C)c2)c1 [Compound M1, N-(4-(2-(2-hydroxyethylamino)ethoxy)-3-(1-methyl-1H-pyrazol-5-yl)phenyl)-3-methoxybenzamide] | longer half-lives than the parent compound |  |
| no appreciable affinity | high affinity | no appreciable affinity | approximately 2 | increased | decreased | decreased | COc1cccc(C(=O)Nc2ccc(OCCN)c(-c3ccnn3C)c2)c1 [Compound M2, N-(4-(2-aminoethoxy)-3-(1-methyl-1H-pyrazol-5-yl)phenyl)-3-methoxybenzamide] | longer half-lives than the parent compound |  |
